These results are taken from patent publication US11000491B2, “Amino-aryl-benzamide compounds and methods of use thereof” (HEPANOVA, INC., priority 2017, dated 2021).

Holding throughout (format): cell-based
The test system of assay [1] is SREBP-1. Put plainly: SREBP-1 expression in cultured primary human hepatocytes. The settings on record: procedure of Example 6, read-out: SREBP-1 mRNA inhibition (EC50). On the procedure: (§1) FIG. 9. Effects of HPN-01 on the expression of SREBP-1 (master regulator of hepatic glucose metabolism and fatty acid synthesis) and SREBP-2 (master regulator of cholesterol homeostasis in cells) in cultured primary human hepatocytes.
(§2) Cultured primary human hepatocytes were treated with various concentrations of HPN-01, and the expression levels of SREBP-1 (master regulator of hepatic glucose metabolism and fatty acid synthesis) and SREBP-2 (master regulator of cholesterol homeostasis in cells) were subsequently determined.
(§3) The ability of each HPN-01 derivative obtained from the synthesis methods described above, to inhibit SREBP-1 and SREBP-2 mRNA expression in primary hepatocytes, was tested using the procedure outlined in Example 6. The results of this analysis are shown in Table 6 (third and fourth columns).

Assay [2] deals with Huh7 cells. Put plainly: LD content in Huh7 cells pre-treated with insulin, Oil-Red-O staining, absorbance OD 540 nm. The note with it: procedure of Example 3, read-out: LD content inhibition (EC50). The protocol: FIG. 6. […] Spectrophotometric absorbance of untreated or HPN-01-treated Huh7 cells pre-incubated with 1 mM insulin is shown. LD contents were stained using Oil Red O, and measured by determining spectrophotometer absorbance under OD 540 nm.
Huh7 cells were mock treated or pre-treated with 1 mM insulin, and subsequently treated with indicated amounted of HPN-01.
The ability of each HPN-01 derivative obtained from the synthesis methods described above, to inhibit LD formation in hepatocytes, was tested using the procedure outlined in Example 3. The results of this analysis are shown below in Table 6 (second column).

Assay [3] concerns SREBP-2. Put plainly: SREBP-2 expression in cultured primary human hepatocytes. The note with it: procedure of Example 6, read-out: SREBP-2 mRNA inhibition (EC50). On the procedure: as §1, §2, §3
Setting [4] is: Homo sapiens, Huh-7, Huh7 cells.

Like-named read-outs stand apart in the source and are kept apart here.

Broadly, the EC50 is the midpoint of the concentration-response curve.

On to `NC(=O)c1cc(-c2ccc(Cl)cn2)cc(-c2ccc(S(N)(=O)=O)cc2)c1N` [HPN-01308, 2-amino-5-(5-chloropyridin-2-yl)-4′-sulfamoyl-[1,1′-biphenyl]-3-carboxamide], for which the EC50 in assay [1] (Homo sapiens, Hepatocyte) was determined as 6.36 µM; in assay [2] (setting [4]) it was 1.9 µM; in assay [3] (Homo sapiens, Hepatocyte), 11.2 µM.

On to `Nc1c(C(=O)NC2CC2)cc(-c2ccc(Cl)cc2)cc1-c1ccc(S(N)(=O)=O)cc1` [HPN-01605, 4′-amino-4-chloro-N-cyclopropyl-4″-sulfamoyl-[1,1′:3′,1″-terphenyl]-5′-carboxamide], for which the EC50 in assay [1] (Homo sapiens, Hepatocyte) amounted to 1.78 µM; in assay [2] (setting [4]), 0.69 µM; in assay [3] (Homo sapiens, Hepatocyte) it was 2.35 µM.

On to `NC(=O)c1cc(-c2ccc(Cl)cc2)cc(-c2ccc(NC(N)=S)cc2)c1N` [HPN-01418, 4′-amino-4-chloro-4″-thioureido-[1,1′:3′,1″-terphenyl]-5′-carboxamide], for which the EC50 was 2.69 µM in assay [1] (Homo sapiens, Hepatocyte); 0.98 µM in assay [2] (setting [4]); 2.45 µM in assay [3] (Homo sapiens, Hepatocyte).

In the case of `NC(=O)c1cc(-c2c[nH]c(Br)c2)cc(-c2ccc(S(N)(=O)=O)cc2)c1N` [HPN-01311, 2-amino-5-(5-bromo-1H-pyrrol-3-yl)-4′-sulfamoyl-[1,1′-biphenyl]-3-carboxamide], the EC50 in assay [1] (Homo sapiens, Hepatocyte) was 3.09 µM; in assay [2] (setting [4]) it was 2.02 µM; in assay [3] (Homo sapiens, Hepatocyte) it was 5.59 µM.

On to `CCCC(=O)Oc1ccc(-c2cc(C(N)=O)c(N)c(-c3ccc(S(N)(=O)=O)cc3)c2)cc1` [HPN-01306, 4′-amino-5′-carbamoyl-4″-sulfamoyl-[1,1′:3′,1″-terphenyl]-4-yl butyrate], for which the EC50 in assay [1] (Homo sapiens, Hepatocyte) is 1.76 µM; in assay [2] (setting [4]) it was 1.33 µM; in assay [3] (Homo sapiens, Hepatocyte) it was 3.26 µM.

For `Nc1c(C(=O)NC2CC2)cc(-c2ccc(Br)cc2)cc1-c1ccc(S(N)(=O)=O)cc1` [HPN-01606, 4′-amino-4-bromo-N-cyclopropyl-4″-sulfamoyl-[1,1′:3′,1″-terphenyl]-5′-carboxamide], the EC50 is 1.13 µM in assay [1] (Homo sapiens, Hepatocyte); 0.14 µM in assay [2] (setting [4]); 2.75 µM in assay [3] (Homo sapiens, Hepatocyte).

Consider `NC(=O)c1cc(-c2ccc(Cl)cc2)cc(Sc2cccc(S(N)(=O)=O)c2)c1N` [HPN-01414, 4-amino-4′-chloro-5-((3-sulfamoylphenyl)thio)-[1,1′-biphenyl]-3-carboxamide], for which the EC50 was 3.94 µM in assay [1] (Homo sapiens, Hepatocyte); 1.57 µM in assay [2] (setting [4]); 9.86 µM in assay [3] (Homo sapiens, Hepatocyte).

As for `COc1cccc(C(=O)OCC#Cc2cc(C(N)=O)c(N)c(-c3ccc(S(N)(=O)=O)cc3)c2)c1` [HPN-01216, 3-(6-amino-5-carbamoyl-4′-sulfamoyl-[1,1′-biphenyl]-3-yl)prop-2-yn-1-yl 3-methoxybenzoate], the EC50 was found to be 4.35 µM in assay [1] (Homo sapiens, Hepatocyte); 0.96 µM in assay [2] (setting [4]); 7.93 µM in assay [3] (Homo sapiens, Hepatocyte).

Consider `NC(=O)c1cc(/C=C/C(=O)O)cc(-c2ccc(S(N)(=O)=O)cc2)c1N` [HPN-01113, (E)-3-(6-amino-5-carbamoyl-4′-sulfamoyl-[1,1′-biphenyl]-3-yl)acrylic acid], for which the EC50 in assay [1] (Homo sapiens, Hepatocyte) stood at 0.69 µM; in assay [2] (setting [4]) it was 0.33 µM; in assay [3] (Homo sapiens, Hepatocyte) it was 0.97 µM.

On to `COC(=O)c1cccc(Nc2cc(C(N)=O)c(N)c(-c3ccc(S(N)(=O)=O)cc3)c2)c1` [HPN-01319, methyl 3-((6-amino-5-carbamoyl-4′-sulfamoyl-[1,1′-biphenyl]-3-yl)amino)benzoate], for which the EC50 in assay [1] (Homo sapiens, Hepatocyte) was 4.8 µM; in assay [2] (setting [4]), 0.63 µM; in assay [3] (Homo sapiens, Hepatocyte), 3.42 µM.

`NC(=O)c1cc(C#CCOC(=O)c2ccc(O)cc2)cc(-c2ccc(S(N)(=O)=O)cc2)c1N` [HPN-01220, 3-(6-amino-5-carbamoyl-4′-sulfamoyl-[1,1′-biphenyl]-3-yl)prop-2-yn-1-yl 4-hydroxybenzoate]: the EC50 in assay [1] (Homo sapiens, Hepatocyte) turned out to be 1.59 µM; in assay [2] (setting [4]), 0.46 µM; in assay [3] (Homo sapiens, Hepatocyte), 3.21 µM.

`Nc1c(-c2ccc(S(N)(=O)=O)cc2)cc(-c2ccc(Br)cc2)cc1N1CCNCC1` [HPN-01622, 6′-amino-4″-bromo-5′-(piperazin-1-yl)-[1,1′:3′,1″-terphenyl]-4-sulfonamide]: the EC50 in assay [1] (Homo sapiens, Hepatocyte) is 37.1 µM; in assay [2] (setting [4]) it was 22.8 µM; in assay [3] (Homo sapiens, Hepatocyte), 50.8 µM.

On to `CCCNC(=O)c1cc(-c2ccc(Br)cc2)cc(-c2ccc(S(N)(=O)=O)cc2)c1N` [HPN-01604, 4′-amino-4-bromo-N-propyl-4″-sulfamoyl-[1, 1′:3′,1″-terphenyl]-5′-carboxamide], for which the EC50 in assay [1] (Homo sapiens, Hepatocyte) turned out to be 1.95 µM; in assay [2] (setting [4]), 1.14 µM; in assay [3] (Homo sapiens, Hepatocyte) it was 5.71 µM.

Take `NC(=O)c1cc(C#CCOC(=O)c2cccc(O)c2)cc(-c2ccc(S(N)(=O)=O)cc2)c1N` [HPN-01219, 3-(6-amino-5-carbamoyl-4′-sulfamoyl-[1,1′-biphenyl]-3-yl)prop-2-yn-1-yl 3-hydroxybenzoate]: the EC50 was found to be 4.71 µM in assay [1] (Homo sapiens, Hepatocyte); 0.96 µM in assay [2] (setting [4]); 6.91 µM in assay [3] (Homo sapiens, Hepatocyte).

As for `Cc1ccc(C(=O)OCC#Cc2cc(C(N)=O)c(N)c(-c3ccc(S(N)(=O)=O)cc3)c2)cc1` [HPN-01214, 3-(6-amino-5-carbamoyl-4′-sulfamoyl-[1,1′-biphenyl]-3-yl)prop-2-yn-1-yl 4-methylbenzoate], the EC50 is 3.42 µM in assay [1] (Homo sapiens, Hepatocyte); 0.52 µM in assay [2] (setting [4]); 6.32 µM in assay [3] (Homo sapiens, Hepatocyte).

In the case of `CC(=O)OCC#Cc1cc(C(N)=O)c(N)c(-c2ccc(S(N)(=O)=O)cc2)c1` [HPN-01223, 3-(6-amino-5-carbamoyl-4′-sulfamoyl-[1,1′-biphenyl]-3-yl)prop-2-yn-1-yl acetate], the EC50 was 2.64 µM in assay [1] (Homo sapiens, Hepatocyte); 1.03 µM in assay [2] (setting [4]); 4.2 µM in assay [3] (Homo sapiens, Hepatocyte).

For the molecule `NC(=O)c1cc(-c2cc(Cl)c[nH]2)cc(-c2ccc(S(N)(=O)=O)cc2)c1N` [HPN-01309, 2-amino-5-(4-chloro-1H-pyrrol-2-yl)-4′-sulfamoyl-[1,1′-biphenyl]-3-carboxamide], the EC50 in assay [1] (Homo sapiens, Hepatocyte) is 8.16 µM; in assay [2] (setting [4]), 3.5 µM; in assay [3] (Homo sapiens, Hepatocyte) it was 8.96 µM.

For the molecule “furan-2-ylmethyl (E)-3-(6-amino-5-carbamoyl-4′-sulfamoyl-[1,1′-biphenyl]-3-yl)acrylate [HPN-01124]”, the EC50 was 1.86 µM in assay [1], 0.67 µM in assay [2] (Huh7 cells) and 3.25 µM in assay [3].

As to `Nc1c(C(=O)Nc2ccc(O)c(O)c2)cc(-c2ccc(Cl)cc2)cc1-c1ccc(S(N)(=O)=O)cc1` [HPN-01617, 4′-amino-4-chloro-N-(3,4-dihydroxyphenyl)-4″-sulfamoyl-[1,1′:3′,1″-terphenyl]-5′-carboxamide], the EC50 in assay [1] (Homo sapiens, Hepatocyte) was 1.88 µM; in assay [2] (setting [4]) it was 0.32 µM; in assay [3] (Homo sapiens, Hepatocyte) it was 3.68 µM.

Take `CCOc1ccc(NC(=O)/C=C/c2cc(C(N)=O)c(N)c(-c3ccc(S(N)(=O)=O)cc3)c2)cc1` [HPN-01129, (E)-2-amino-5-(3-((4-ethoxyphenyl)amino)-3-oxoprop-1-en-1-yl)-4′-sulfamoyl-[1,1′-biphenyl]-3-carboxamide]: the EC50 in assay [1] (Homo sapiens, Hepatocyte) was determined as 1.69 µM; in assay [2] (setting [4]), 0.29 µM; in assay [3] (Homo sapiens, Hepatocyte) it was 3.1 µM.

For `NC(=O)c1cc(C#CCOC(=O)c2ccccc2Cl)cc(-c2ccc(S(N)(=O)=O)cc2)c1N` [HPN-01210, 3-(6-amino-5-carbamoyl-4′-sulfamoyl-[1,1′-biphenyl]-3-yl)prop-2-yn-1-yl 2-chlorobenzoate], the EC50 came to 1.92 µM in assay [1] (Homo sapiens, Hepatocyte); 0.53 µM in assay [2] (setting [4]); 2.97 µM in assay [3] (Homo sapiens, Hepatocyte).

For the molecule `N=C(N)Nc1ccc(-c2cc(-c3ccc(Cl)cc3)cc(C(N)=O)c2N)cc1` [HPN-01417, 4′-amino-4-chloro-4″-guanidino-[1,1′:3′,1″-terphenyl]-5′-carboxamide], the EC50 in assay [1] (Homo sapiens, Hepatocyte) came to 3.15 µM; in assay [2] (setting [4]) it was 1.26 µM; in assay [3] (Homo sapiens, Hepatocyte), 4.92 µM.

On to `NC(=O)c1cc(-c2ccc(Cl)cc2)cc(-c2ccc(S(N)(=O)=O)cn2)c1N` [HPN-01428, 4-amino-4′-chloro-5-(5-sulfamoylpyridin-2-yl)-[1,1′-biphenyl]-3-carboxamide], for which the EC50 in assay [1] (Homo sapiens, Hepatocyte) worked out at 5.65 µM; in assay [2] (setting [4]) it was 1.14 µM; in assay [3] (Homo sapiens, Hepatocyte), 18.8 µM.

Regarding `NC(=O)c1cc(Nc2ccc(Cl)cc2)cc(-c2ccc(S(N)(=O)=O)cc2)c1N` [HPN-01312, 2-amino-5-((4-chlorophenyl)amino)-4′-sulfamoyl-[1,1′-biphenyl]-3-carboxamide], the EC50 came out at 7.53 µM in assay [1] (Homo sapiens, Hepatocyte); 1.45 µM in assay [2] (setting [4]); 10.3 µM in assay [3] (Homo sapiens, Hepatocyte).

With `C[Si](C)(C)C#Cc1cc(C(N)=O)c(N)c(-c2ccc(S(N)(=O)=O)cc2)c1` [HPN-01209, 2-amino-4′-sulfamoyl-5-((trimethylsilyl)ethynyl)-[1,1′-biphenyl]-3-carboxamide], the EC50 in assay [1] (Hepatocyte) is 2.33 µM; in assay [2] (setting [4]) it was 0.82 µM; in assay [3] (Hepatocyte) it was 1.98 µM.
